What all share (assay type): functional, cell-based
One assay concerns BGC-823. The experiment in a line: Antiproliferative activity against human BGC823 cells after 48 hrs by MTT assay. The conditions noted are these: BGC-823, 48 h. Background: Formazan colour is commonly taken as a measure of viable cells.
The subject of a further assay is HepG2. Description: Antiproliferative activity against human HepG2 cells after 48 hrs by MTT assay. The following applies: HepG2, 48 h.
In a further assay the test system is PC-3. The experiment in a line: Antiproliferative activity against human PC3 cells after 48 hrs by MTT assay. The following applies: PC-3, 48 h.
Another assay has as its system MCF7. The experiment in a line: Antiproliferative activity against human MCF7 cells after 48 hrs by MTT assay. The following applies: MCF7, 48 h.
In the next assay the test system is DU-145. Description: Antiproliferative activity against human DU145 cells after 48 hrs by MTT assay. The conditions noted are these: DU-145, 48 h.

In ChEMBL document CHEMBL4371049, “Semi-synthesis and anti-tumor activity of novel 25-OCH3-PPD derivatives incorporating aromatic moiety” (Bioorg Med Chem Lett, 2019) one finds IC50 data, which are given here for 25 molecules.

Broadly, the IC50 is the concentration needed to halve the response being measured. The low end stands for greater potency, the high end for weaker potency.

On to `COC(C)(C)CCC[C@@](C)(O)[C@H]1CC[C@]2(C)[C@@H]1[C@H](O)C[C@@H]1[C@@]3(C)CC[C@H](OC(=O)c4ccc(I)cc4)C(C)(C)[C@@H]3CC[C@]12C`, for which the IC50 with BGC-823 was above 50 µM; in the assay with HepG2, above 50 µM; in the assay with PC-3 it was above 50 µM; in the assay with MCF7, 46.3 µM; with DU-145, 31.8 µM.
In the case of `COC(C)(C)CCC[C@@](C)(O)[C@H]1CC[C@]2(C)[C@@H]1[C@H](O)C[C@@H]1[C@@]3(C)CC[C@H](OC(=O)/C=C/c4ccc(F)cc4)C(C)(C)[C@@H]3CC[C@]12C`, the IC50 with BGC-823 was 18 µM; in the assay on HepG2, 26.9 µM; in the assay with PC-3 it was 17.6 µM; in the assay on MCF7, 23.7 µM; with DU-145, 20.6 µM.
For `COC(C)(C)CCC[C@@](C)(O)[C@H]1CC[C@]2(C)[C@@H]1[C@H](OC(=O)c1ccc(F)cc1F)C[C@@H]1[C@@]3(C)CC[C@H](OC(=O)c4ccc(F)cc4F)C(C)(C)[C@@H]3CC[C@]12C` the same measures were 37.7 µM, above 50 µM, 43.2 µM, above 50 µM and above 50 µM.
Consider `COC(C)(C)CCC[C@@](C)(O)[C@H]1CC[C@]2(C)[C@@H]1[C@H](OC(=O)/C=C/c1ccccc1)C[C@@H]1[C@@]3(C)CC[C@H](O)C(C)(C)[C@@H]3CC[C@]12C`, for which the IC50 in the assay on BGC-823, in the assay on HepG2, in the assay on PC-3, in the assay with MCF7 and with DU-145 was above 50 µM throughout.
Turning to `COC(C)(C)CCC[C@@](C)(O)[C@H]1CC[C@]2(C)[C@@H]1[C@H](O)C[C@@H]1[C@@]3(C)CC[C@H](OC(=O)/C=C/c4ccccc4)C(C)(C)[C@@H]3CC[C@]12C`, the IC50 in the assay on BGC-823 turned out to be 28.7 µM; with HepG2 it was 26.4 µM; in the assay with PC-3, 37.2 µM; in the assay with MCF7, 35 µM; in the assay with DU-145, 40.1 µM.
For `COC(C)(C)CCC[C@@](C)(O)[C@H]1CC[C@]2(C)[C@@H]1[C@H](O)C[C@@H]1[C@@]3(C)CC[C@H](OC(=O)c4cc(F)ccc4Br)C(C)(C)[C@@H]3CC[C@]12C` the same measures were 34.4 µM, 18.9 µM, 39.9 µM, 15.6 µM and 28.7 µM.
For `COC(C)(C)CCC[C@@](C)(O)[C@H]1CC[C@]2(C)[C@@H]1[C@H](O)C[C@@H]1[C@@]3(C)CC[C@H](O)C(C)(C)[C@@H]3CC[C@]12C` the same measures were 36 µM, 35.9 µM, 39.5 µM, 31.3 µM and 40.7 µM.
For `COC(C)(C)CCC[C@@](C)(O)[C@H]1CC[C@]2(C)[C@@H]1[C@H](OC(=O)c1ccccc1C)C[C@@H]1[C@@]3(C)CC[C@H](O)C(C)(C)[C@@H]3CC[C@]12C`, in that order: above 50 µM, above 50 µM, above 50 µM, above 50 µM and above 50 µM.
As to `COC(C)(C)CCC[C@@](C)(O)[C@H]1CC[C@]2(C)[C@@H]1[C@H](O)C[C@@H]1[C@@]3(C)CC[C@H](OC(=O)c4cc([N+](=O)[O-])cc([N+](=O)[O-])c4)C(C)(C)[C@@H]3CC[C@]12C`, the IC50 with BGC-823 stood at 9.5 µM; in the assay with HepG2 it was 14.5 µM; in the assay on PC-3, 7.5 µM; in the assay with MCF7 it was 11.7 µM; in the assay with DU-145, 13.4 µM.
For `COC(C)(C)CCC[C@@](C)(O)[C@H]1CC[C@]2(C)[C@@H]1[C@H](O)C[C@@H]1[C@@]3(C)CC[C@H](OC(=O)c4cccc(C)c4)C(C)(C)[C@@H]3CC[C@]12C`, in that order: above 50 µM, 38.4 µM, above 50 µM, above 50 µM and 46.2 µM.
For `COC(C)(C)CCC[C@@](C)(O)[C@H]1CC[C@]2(C)[C@@H]1[C@H](OC(=O)c1ccc(I)cc1)C[C@@H]1[C@@]3(C)CC[C@H](O)C(C)(C)[C@@H]3CC[C@]12C`, in that order: above 50 µM, above 50 µM, above 50 µM, above 50 µM and above 50 µM.
For `COC(C)(C)CCC[C@@](C)(O)[C@H]1CC[C@]2(C)[C@@H]1[C@H](O)C[C@@H]1[C@@]3(C)CC[C@H](OC(=O)c4ccc(F)cc4)C(C)(C)[C@@H]3CC[C@]12C`, in that order: 12.7 µM, 8.5 µM, 15 µM, 9.4 µM and 13.8 µM.
Consider `COC(C)(C)CCC[C@@](C)(O)[C@H]1CC[C@]2(C)[C@@H]1[C@H](O)C[C@@H]1[C@@]3(C)CC[C@H](OC(=O)c4ccccc4I)C(C)(C)[C@@H]3CC[C@]12C`, for which the IC50 in the assay with BGC-823 was determined as 28.7 µM; in the assay on HepG2, 39.2 µM; in the assay with PC-3, 46.5 µM; in the assay on MCF7, 33.4 µM; with DU-145 it was 28.1 µM.
Consider `COC(C)(C)CCC[C@@](C)(O)[C@H]1CC[C@]2(C)[C@@H]1[C@H](OC(=O)/C=C/c1ccc(F)cc1)C[C@@H]1[C@@]3(C)CC[C@H](OC(=O)/C=C/c4ccc(F)cc4)C(C)(C)[C@@H]3CC[C@]12C`, for which the IC50 was above 50 µM in the assay on BGC-823; 41.8 µM in the assay with HepG2; above 50 µM in the assay on PC-3; above 50 µM with MCF7; 34.6 µM in the assay with DU-145.
As to `COC(C)(C)CCC[C@@](C)(O)[C@H]1CC[C@]2(C)[C@@H]1[C@H](OC(=O)c1ccccc1)C[C@@H]1[C@@]3(C)CC[C@H](OC(=O)c4ccccc4)C(C)(C)[C@@H]3CC[C@]12C`, the IC50 in the assay with BGC-823, in the assay on HepG2, in the assay with PC-3, with MCF7 and with DU-145 was above 50 µM each time.
For `COC(C)(C)CCC[C@@](C)(O)[C@H]1CC[C@]2(C)[C@@H]1[C@H](O)C[C@@H]1[C@@]3(C)CC[C@H](OC(=O)c4ccc(Cl)cc4)C(C)(C)[C@@H]3CC[C@]12C`, the IC50 with BGC-823 amounted to 26.4 µM; with HepG2 it was 25.7 µM; in the assay with PC-3, 28.3 µM; in the assay on MCF7 it was 19 µM; with DU-145, 20.5 µM.
For `COC(C)(C)CCC[C@@](C)(O)[C@H]1CC[C@]2(C)[C@@H]1[C@H](OC(=O)/C=C/c1ccccc1)C[C@@H]1[C@@]3(C)CC[C@H](OC(=O)/C=C/c4ccccc4)C(C)(C)[C@@H]3CC[C@]12C` the same measures were above 50 µM, above 50 µM, above 50 µM, above 50 µM and above 50 µM.
For `COC(C)(C)CCC[C@@](C)(O)[C@H]1CC[C@]2(C)[C@@H]1[C@H](O)C[C@@H]1[C@@]3(C)CC[C@H](OC(=O)c4ccccc4[N+](=O)[O-])C(C)(C)[C@@H]3CC[C@]12C` the same measures were 7.9 µM, 12 µM, 14.8 µM, 8.6 µM and 11.5 µM.
For the molecule `COC(C)(C)CCC[C@@](C)(O)[C@H]1CC[C@]2(C)[C@@H]1[C@H](O)C[C@@H]1[C@@]3(C)CC[C@H](OC(=O)c4cc(C)cc(C)c4)C(C)(C)[C@@H]3CC[C@]12C`, the half-maximal inhibitory concentration (IC50) in the assay with BGC-823 is above 50 µM; in the assay with HepG2, above 50 µM; with PC-3, above 50 µM; in the assay on MCF7 it was 48.2 µM; with DU-145, above 50 µM.
For the molecule `COC(C)(C)CCC[C@@](C)(O)[C@H]1CC[C@]2(C)[C@@H]1[C@H](OC(=O)c1cc([N+](=O)[O-])cc([N+](=O)[O-])c1)C[C@@H]1[C@@]3(C)CC[C@H](OC(=O)c4cc([N+](=O)[O-])cc([N+](=O)[O-])c4)C(C)(C)[C@@H]3CC[C@]12C`, the IC50 in the assay on BGC-823 is above 50 µM; in the assay with HepG2, above 50 µM; in the assay on PC-3, above 50 µM; with MCF7, 38.2 µM; with DU-145 it was 44.6 µM.
`COC(C)(C)CCC[C@@](C)(O)[C@H]1CC[C@]2(C)[C@@H]1[C@H](OC(=O)c1cc(C)cc(C)c1)C[C@@H]1[C@@]3(C)CC[C@H](OC(=O)c4cc(C)cc(C)c4)C(C)(C)[C@@H]3CC[C@]12C`: the IC50 in the assay on BGC-823, with HepG2, with PC-3, with MCF7 and with DU-145 was above 50 µM in each case.
As for `COC(C)(C)CCC[C@@](C)(O)[C@H]1CC[C@]2(C)[C@@H]1[C@H](OC(=O)c1ccc(Cl)cc1)C[C@@H]1[C@@]3(C)CC[C@H](OC(=O)c4ccc(Cl)cc4)C(C)(C)[C@@H]3CC[C@]12C`, the IC50 was above 50 µM in the assay on BGC-823; 41.5 µM in the assay on HepG2; above 50 µM with PC-3; 36.4 µM with MCF7; above 50 µM with DU-145.
In the case of `O=c1[nH]cc(F)c(=O)[nH]1` [FLUOROURACIL], the IC50 in the assay with BGC-823 is 24.8 µM; in the assay on PC-3, 23.1 µM; with MCF7, 22.6 µM; in the assay with DU-145 it was 25.3 µM.
Take `COC(C)(C)CCC[C@@](C)(O)[C@H]1CC[C@]2(C)[C@@H]1[C@H](OC(=O)c1cc([N+](=O)[O-])cc([N+](=O)[O-])c1)C[C@@H]1[C@@]3(C)CC[C@H](O)C(C)(C)[C@@H]3CC[C@]12C`: the IC50 in the assay on BGC-823, in the assay on HepG2, in the assay on PC-3, in the assay on MCF7 and with DU-145 was above 50 µM each time.
Turning to `COC(C)(C)CCC[C@@](C)(O)[C@H]1CC[C@]2(C)[C@@H]1[C@H](O)C[C@@H]1[C@@]3(C)CC[C@H](OC(=O)c4cccc(F)c4)C(C)(C)[C@@H]3CC[C@]12C`, the IC50 with BGC-823 turned out to be 5.3 µM; in the assay with HepG2 it was 10.3 µM; in the assay with PC-3 it was 13.5 µM; in the assay with MCF7 it was 6.4 µM; in the assay with DU-145, 8.6 µM.
